Values quoted from earlier work as cited in Sander's compilation of Henry's law constants (doi:10.1021/je049693f).
Values joined by “and” are separate entries in the source; they are usually repeats but may differ in a detail not shown here. Identical values can stand only once.

Assay: Henry solubility constant Hcp at 298.15 K (mol/(m3 Pa))
Settings: reference: Shen and Wania (2005); cited value

Structure (SMILES)	Henry solubility constant Hcp
Clc1ccc(C(c2ccc(Cl)cc2)C(Cl)(Cl)Cl)cc1 [1,1,1-trichloro-2,2-bis-(4-chlorophenyl)-ethane]	0.91
Clc1ccc(C(c2ccc(Cl)cc2)C(Cl)Cl)cc1 [1,1-dichloro-2,2-bis-(4-chlorophenyl)-ethane]	1.5 and 2
ClC(Cl)=C(c1ccc(Cl)cc1)c1ccc(Cl)cc1 [1,1-dichloro-2,2-bis-(4-chlorophenyl)-ethene]	0.24
ClC1=C(Cl)[C@]2(Cl)[C@H]3[C@H]([C@@H]4C=C[C@H]3C4)[C@@]1(Cl)C2(Cl)Cl [aldrin]	0.067 and 0.043
ClC1=C(Cl)[C@]2(Cl)[C@@H]3[C@@H](Cl)[C@@H](Cl)C[C@@H]3[C@@]1(Cl)C2(Cl)Cl [cis-chlordane]	0.17 and 0.18
ClC1=C(Cl)[C@]2(Cl)[C@@H]3[C@@H]4C[C@@H]([C@H]5O[C@@H]45)[C@@H]3[C@@]1(Cl)C2(Cl)Cl [dieldrin]	1 and 0.91
ClC1=C(Cl)[C@]2(Cl)[C@@H]3[C@H]4C[C@H]([C@@H]5O[C@H]45)[C@@H]3[C@@]1(Cl)C2(Cl)Cl [endrin]	1.6 and 0.91
ClC1=C(Cl)C2(Cl)C3C(Cl)C=CC3C1(Cl)C2(Cl)Cl (stereo not given) [heptachlor]	0.033 and 0.026
ClC1=C(Cl)C2(Cl)C3C4OC4C(Cl)C3C1(Cl)C2(Cl)Cl (stereo not given) [heptachlorepoxide]	0.48 and 0.59
ClC1=C(Cl)[C@]2(Cl)[C@H]3[C@H](Cl)[C@@H](Cl)C[C@H]3[C@@]1(Cl)C2(Cl)Cl [trans-chlordane]	0.17 and 0.15
